{
  "source": "patent US5811391A",
  "about": "“Cyclic CS-1 peptidomimetics, compositions and methods of using same” (Cytel Corporation, priority 1995, dated 1998)",
  "key": {"VLA-4/sVCAM-1": {"biological_target": "T1, VLA-4/sVCAM-1 (Homo sapiens, UniProt P05556+P13612)", "T1 construct": "host or cells: Jurkat cells carry the VLA-4; The sVCAM-1 partner was made in house in transfected human embryonal kidney 293 cells (ATCC CRL 1573)", "T1 sequence (P13612 34-1032)": "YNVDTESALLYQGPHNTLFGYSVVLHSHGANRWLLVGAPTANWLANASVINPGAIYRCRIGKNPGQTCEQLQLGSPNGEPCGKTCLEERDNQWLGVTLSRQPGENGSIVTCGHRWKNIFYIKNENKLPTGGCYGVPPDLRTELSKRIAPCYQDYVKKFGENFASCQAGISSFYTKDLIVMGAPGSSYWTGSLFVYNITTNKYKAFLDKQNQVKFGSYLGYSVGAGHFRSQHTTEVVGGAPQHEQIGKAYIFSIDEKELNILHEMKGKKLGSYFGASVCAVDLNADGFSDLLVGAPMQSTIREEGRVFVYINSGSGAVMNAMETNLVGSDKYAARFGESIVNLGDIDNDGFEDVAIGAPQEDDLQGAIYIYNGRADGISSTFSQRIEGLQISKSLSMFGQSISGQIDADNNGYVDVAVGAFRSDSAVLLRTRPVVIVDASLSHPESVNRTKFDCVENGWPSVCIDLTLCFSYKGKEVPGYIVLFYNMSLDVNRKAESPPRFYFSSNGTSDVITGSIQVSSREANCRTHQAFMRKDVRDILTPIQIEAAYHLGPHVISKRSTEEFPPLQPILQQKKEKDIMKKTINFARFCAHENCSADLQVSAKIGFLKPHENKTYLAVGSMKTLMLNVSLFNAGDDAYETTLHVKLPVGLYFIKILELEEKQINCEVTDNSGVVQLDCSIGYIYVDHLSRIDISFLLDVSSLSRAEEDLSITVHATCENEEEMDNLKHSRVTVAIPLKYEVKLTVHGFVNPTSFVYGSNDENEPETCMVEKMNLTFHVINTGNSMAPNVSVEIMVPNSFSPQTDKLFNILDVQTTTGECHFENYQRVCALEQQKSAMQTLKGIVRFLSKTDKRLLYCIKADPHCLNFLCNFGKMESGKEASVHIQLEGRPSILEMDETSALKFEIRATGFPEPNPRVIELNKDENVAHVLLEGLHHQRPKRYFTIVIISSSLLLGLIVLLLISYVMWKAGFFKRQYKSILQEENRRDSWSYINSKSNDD", "T1 sequence (P05556 21-798)": "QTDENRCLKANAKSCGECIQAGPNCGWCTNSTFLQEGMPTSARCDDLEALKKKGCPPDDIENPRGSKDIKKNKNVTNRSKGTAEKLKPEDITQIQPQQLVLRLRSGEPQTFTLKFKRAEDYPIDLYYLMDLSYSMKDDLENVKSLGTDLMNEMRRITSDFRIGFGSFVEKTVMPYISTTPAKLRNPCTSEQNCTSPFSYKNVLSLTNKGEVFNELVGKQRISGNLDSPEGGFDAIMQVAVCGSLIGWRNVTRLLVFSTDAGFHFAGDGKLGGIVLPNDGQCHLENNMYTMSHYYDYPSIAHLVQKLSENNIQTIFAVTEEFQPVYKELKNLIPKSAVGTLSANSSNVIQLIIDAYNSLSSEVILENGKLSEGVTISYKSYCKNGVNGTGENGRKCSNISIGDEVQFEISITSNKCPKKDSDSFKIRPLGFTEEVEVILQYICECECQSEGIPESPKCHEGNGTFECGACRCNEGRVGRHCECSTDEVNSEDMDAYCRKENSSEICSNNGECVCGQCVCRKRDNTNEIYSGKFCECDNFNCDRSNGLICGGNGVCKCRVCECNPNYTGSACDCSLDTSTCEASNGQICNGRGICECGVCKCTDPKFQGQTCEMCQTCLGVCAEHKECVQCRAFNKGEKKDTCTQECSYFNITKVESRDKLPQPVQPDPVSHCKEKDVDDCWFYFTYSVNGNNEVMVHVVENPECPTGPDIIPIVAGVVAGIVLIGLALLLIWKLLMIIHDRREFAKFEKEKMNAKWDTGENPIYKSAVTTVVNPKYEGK", "assay": "In vitro binding assay: Jurkat cells to solid phase-bound sVCAM-1", "format": "cell-based", "conditions": "for relative potencies for inhibiting Jurkat cell binding to solid phase-bound sVCAM-1: compared against each other, XLDFp = 1", "description": "Assays conducted using sVCAM-1 as solid phase-bound antigen were carried out substantially identically to those using CS-1. The sVCAM-1 polypeptide used had the same amino acid residue sequence as the materials described in Lobb et al., Biochem. Biophys. Res. Commun., 178:1498-1504 (1991) and Cybulsky et al., Proc. Natl. Acad. Sci., USA, 88:7859-7863 (1991). Human embryonal kidney line 293 (ATCC CRL 1573) cells were co-transfected with a plasmid (pCDNAI;invitrogen) containing the sVCAM-1 DNA sequence and plasmid pSV2-neo [Southern et al., J. Mol. Appl. Gen., 1:327-341 ([…])]. Cells were selected in DMEM, 10 percent fetal bovine serum and 600 μg/ml Geneticin. sVCAM-1 was purified from supernatants using a column containing monoclonal antibody P3H12 (anti-human VCAM-1) coupled to Sepharose 4B. The sVCAM-1 was eluted using 0.1M glycine at pH 2.5 following 50 column washes with PBS, pH 7.2. The eluate was immediately neutralized and dialyzed against PBS for use."}, "[1]": {"assay": "Retention of potency in PBS containing 10 percent mouse or human serum", "format": "in vitro ADME", "conditions": "PBS at 7.2-7.4 containing 10 percent mouse or human serum"}, "VLA-4 [2]": {"biological_target": "T2, VLA-4 (Homo sapiens, UniProt P05556+P13612)", "T2 sequence (P13612 34-1032)": "as the sequence (P13612 34-1032) above", "T2 sequence (P05556 21-798)": "as the sequence (P05556 21-798) above", "assay": "In vitro binding assay: 51Cr-labeled Jurkat cells to solid phase-bound CS-1 peptide (SEQ ID NO:5)", "format": "cell-based", "parameters": "inflammatory cells that contain the VLA-4 receptor [Jurkat cells; host or cells: Jurkat cells (human T lymphoblastic line)", "conditions": "for Relative Potency: Table 1, normalized IC50 potency relative to standard peptide SEQ ID NO:6 (=1), Jurkat cells, CS-1; for CS-1 inhibition potencies relative to each other: ratio XLDFZ:XLDFp:SEQ ID NO:7, XLDFp = 1; for Potency in inhibiting Jurkat cell binding to CS-1 relative to standard 10-mer of SEQ ID NO:6: times/fold more potent than SEQ ID NO:6", "description": "Binding inhibition is measured here as a concentration of peptide that inhibits one-half the binding between a standard number of Jurkat cells and a standard amount of CS-1 peptide bound to the surface of a microtiter plate well. Those concentrations are conveniently expressed as IC50 values, smaller numbers indicating a lower concentration required to inhibit 50 percent binding and therefore greater potency. Further specifics of this assay are provided hereinafter.\nJurkat cells (ATCC TIB 152), a human T lymphoblastic line, labeled with ^51 chromium were used to assay in vitro binding inhibition provided by various peptides discussed herein.\nThe plates were prepared as follows: The 25-mer CS-1 peptide (SEQ ID NO:5) dissolved at 0.5-1 μg/ml in a buffer of 0.1M NaHCO3 at pH 9.5 that also contained 10 μg/ml of bovine serum albumin (BSA) or a conjugate of the CS-1 peptide linked to ovalbumin (CS-1-OVA) dissolved at 1-2.5 μg/ml in the same buffer was used as the substrate. Each well of the microtiter plates was coated with 50 μl of substrate or buffer alone for controls. The wells were permitted to dry out completely and were then rinsed twice with PBS at pH 7.4. Non-specific binding sites of each well were then blocked using 200 μl per well of RPMI/1 percent BSA for two hours at room temperature. Both solid phase-affixed substrates provided similar results.\nJurkat cells (3-5×10^6 cells) were placed into a 15 ml FALCON™ round-bottom tube with a cap. The tube was centrifuged, and the extra medium was then removed.\nTwo hundred microliters of a ^51 Cr labeling solution were added to the centrifuged cells and maintained in contact with the cells for 90-120 minutes in a warm room. This procedure typically provides about 50,000-100,000 cpm/well with about 80-100 percent cell viability. Longer contact times provide a greater amount of labeling but lower cell viability.\nThe labeled cells were washed with (i) complete medium, (ii) 1mM EDTA/PBS and then (iii) RPM1/1 percent BSA free of serum components. The cells were centrifuged after each washing. The cells were finally resuspended in serum-free RPMI/1 percent BSA at a concentration of 1×10^6 viable cells/ml, which provides a concentration that is diluted by one-half in the assay.\nCyclic inhibitor peptides were prepared as stock solutions at 20 mg/ml in DMSO in 1.5 ml cryogenic screwcap vials, and were stored at -70° C. Using FLOW™ round-bottom or V-bottom microtiter plates, the inhibitor peptides were prepared at twice the assay concentration in RPMI/1 percent BSA at 60 μl/well.\nFour initial dilutions were typically used.\nThe ^51 Cr-labeled cells (1×10^6 cells at 60 μl/well) were then admixed with the diluted cyclic peptide solutions. The admixtures were maintained at room temperature (about 22° C.) for 30 minutes.\nOne hundred microliters of each inhibitor peptide/cell admixture were transferred to the substrate-coated wells. This was done in triplicate for each dilution. The resulting plates were incubated for 30 minutes at 37° C. and then washed gently three times with RPMI/1 percent BSA at 200 μl/well. Binding was observed microscopically, particularly after the second wash.\nThe bound cells were then lysed by the addition of a 0.5 percent solution of sodium dodecylsulfate in water at 100 μl/well. The resulting solutions were then processed for counting and calculation of IC50 values following usual procedures. Appropriate positive and negative controls were used with each plate so that the results of separate assays could be normalized and compared.\nThe potency data of Table 1 and Table 2 are so normalized. The absolute IC50 value for the peptide of SEQ ID NO:7 is 0.3 μM."}, "[3]": {"system": "porcine peripheral blood lymphocytes / coronary artery endothelial cells and smooth muscle cells", "assay": "In vitro porcine allograft model: transendothelial lymphocyte migration", "format": "cell-based", "conditions": "10 μg/ml in the medium, IL-1β-stimulated SMC; present-tense example", "description": "A similar study is carried out in vitro using porcine coronary artery endothelial cells (EC; as are present in the IEL) and smooth muscle cells (SMC; as are present in the medial layer of the artery). The two cell types are cultured using a membrane transwell system, with the SMC on the bottom layer in M-199 medium (Gibco Labs.). The SMC are stimulated with 100 ng/ml of interleukin-1β (IL-1β) for 24 hours prior to the start of the assay. Porcine peripheral blood lymphocytes are separated by Ficoll-Hypaque, radiolabeled and incubated overnight (about 18 hours) on the EC."}, "contact hypersensitivity": {"system": "contact hypersensitivity", "conditions": "Ferguson et al. 1991; cited from earlier work"}, "[4]": {"conditions": "Elices et al. 1993; cited from earlier work"}, "[5]": {"system": "Jurkat cell adhesion to RA synovial sections", "conditions": "10-mer at 500 μg/ml; reported in Elices et al., J. Clin. Invest. 1994; cited from earlier work"}, "VLA-4 [6]": {"biological_target": "T2, VLA-4", "conditions": "cited from earlier work"}},
  "note": "Several values for one entry are separate records, joined by “and”; a condition that tells them apart may be missing. Identical values can stand only once. Positions of bridges follow the written chain, without caps; N, C: chain ends. Non-standard residues stand in square brackets, D forms with d. Residues, ends and D or L forms follow the SMILES beside them. No end group written: not given here. *: point of attachment. PhAc = O=C(Cc1ccccc1)*",
  "data": [
    {"molecule": "NC(=O)[C@@H]1CSSC[C@H](NC(=O)Cc2ccccc2)C(=O)N[C@@H](CC(=O)O)C(=O)N[C@@H](Cc2ccccc2)C(=O)N1", "note": "[SEQ ID NO:7, .phi.AcCDFC-NH2] (PhAc-CDFC-NH2; disulfide 1-4)", "values": [
      {"measurement": "potency relative to the best linear peptide (XLDFZ) as inhibitor of Jurkat cell binding to sVCAM-1", "setting": "VLA-4/sVCAM-1", "value": "about 3 times"},
      {"measurement": "relative potencies for inhibiting Jurkat cell binding to solid phase-bound sVCAM-1", "setting": "VLA-4/sVCAM-1", "value": "~3.8"},
      {"measurement": "loss of potency in serum-containing buffer", "setting": "[1]", "value": "no loss of potency after 24 hours"},
      {"measurement": "potency relative to the best linear peptide (XLDFZ) for inhibiting Jurkat cell binding to CS-1", "setting": "VLA-4 [2]", "value": "about two-thirds the potency"},
      {"measurement": "Relative Potency", "setting": "VLA-4 [2]", "value": 526},
      {"measurement": "CS-1 inhibition potencies relative to each other", "setting": "VLA-4 [2]", "value": "~1.8"},
      {"measurement": "Potency in inhibiting Jurkat cell binding to CS-1 relative to standard 10-mer of SEQ ID NO:6", "setting": "VLA-4 [2]", "value": "500-600 and ~563"}
    ]},
    {"molecule": "CC(C)C[C@@H]1NC(=O)[C@H](Cc2ccccc2)NC(=O)[C@@H](N)CSSC[C@@H](C(N)=O)NC(=O)[C@H](CO)NC(=O)[C@@H]2CCCN2C(=O)[C@H](Cc2ccccc2)NC(=O)[C@H](CC(=O)O)NC1=O", "note": "[SEQ ID NO:13, CFLDFPSC-NH2] (H-CFLDFPSC-NH2; disulfide 1-8)", "values": [
      {"measurement": "transendothelial lymphocyte migration", "setting": "[3]", "value": "reduces lymphocyte migration"},
      {"measurement": "Relative Potency", "setting": "VLA-4 [2]", "value": 122}
    ]},
    {"molecule": "CC(C)C[C@H](NC(=O)Cc1ccccc1)C(=O)N[C@@H](CC(=O)O)C(=O)N[C@@H](Cc1ccccc1)C(=O)N1CCC[C@@H]1C(N)=O", "note": "[XLDFp, .phi.Ac-LeuAspPhe-D-Pro-NH2, reference compound] (PhAc-LDF[dP]-NH2)", "values": [
      {"measurement": "relative potencies for inhibiting Jurkat cell binding to solid phase-bound sVCAM-1", "setting": "VLA-4/sVCAM-1", "value": "~1"},
      {"measurement": "CS-1 inhibition potencies relative to each other", "setting": "VLA-4 [2]", "value": "~1"},
      {"measurement": "Potency in inhibiting Jurkat cell binding to CS-1 relative to standard 10-mer of SEQ ID NO:6", "setting": "VLA-4 [2]", "value": "~313"}
    ]},
    {"molecule": "Arg-Gly-Asp [Arg-Gly-Asp peptide]", "values": [
      {"measurement": "recruitment of T lymphocytes to skin inflammatory sites", "setting": "contact hypersensitivity", "value": "also inhibitory"}
    ]},
    {"molecule": "DELPQLVTLPHPNLHGPEILDVPST [CS-1 peptide, reference compound]", "values": [
      {"measurement": "loss of potency in serum-containing buffer", "setting": "[1]", "value": "lost its potency in less than one hour"},
      {"measurement": "clearance from blood circulation", "setting": "[4]", "value": "rapidly cleared from blood circulation by proteolytic degradation"}
    ]},
    {"molecule": "GPEILDVPST [SEQ ID NO:6, standard 10-mer peptide GlyProGluIleLeuAspValProSerThr, set atone, reference compound]", "values": [
      {"measurement": "inhibition of binding between solid phase-bound sVCAM-1 and Jurkat cells (in words)", "setting": "VLA-4/sVCAM-1", "value": "no inhibition"},
      {"measurement": "inhibition of Jurkat cell adhesion to RA synovial sections", "setting": "[5]", "value": "can be inhibited"},
      {"measurement": "Relative Potency", "setting": "VLA-4 [2]", "value": 1},
      {"measurement": "Potency in inhibiting Jurkat cell binding to CS-1 relative to standard 10-mer of SEQ ID NO:6", "setting": "VLA-4 [2]", "value": "~1"}
    ]},
    {"molecule": "ILDFP-NH2 [SEQ ID NO:27, ILDFP-NH2]", "values": [
      {"measurement": "Relative Potency", "setting": "VLA-4 [2]", "value": 2}
    ]},
    {"molecule": "ILDVPILDVP-NH2 [SEQ ID NO:26, ILDVPILDVP-NH2]", "values": [
      {"measurement": "Relative Potency", "setting": "VLA-4 [2]", "value": 2}
    ]},
    {"molecule": "Leu-Asp-Val [LDV]", "values": [
      {"measurement": "affinity of VLA-4 compared with native CS-1 25-mer", "setting": "VLA-4 [6]", "value": "at least two orders of magnitude lower affinity"}
    ]},
    {"molecule": "SFDFS-NH2 [SEQ ID NO:31, SFDFS-NH2]", "values": [
      {"measurement": "Relative Potency", "setting": "VLA-4 [2]", "value": "< 1"}
    ]}
  ]
}
